Assay results as given in patent US20230106032A1, “IMIDAZOTRIAZINES ACTING ON CANCER VIA INHIBITION OF CDK12” (Bayer Aktiengesellschaft, priority 2020, published 2023).

Tests used:
[1] = system: BRCA1 mRNA expression in MDA-MB-231 cells; experiment: qRT-PCR assay: inhibition of BRCA1 mRNA expression in MDA-MB-231 cells; assay type: cell-based; conditions: Homo sapiens, 24 h exposure, normalised to GAPDH, read-out: RTqPCR-MDA-MB-231 IC50 [mol/l] BRCA1 (median)
Description: Tissue cultured human MDA-MB-231 human breast cancer cells were plated in 500 microL per well at 200,000 cells/well in a 24 well microtiter plate. After 24 h, the cells were exposed continuously for 24 h to test substances (substances were added with Tecan HP D300 Dispenser). RNA was prepared using Qiagen RNeasy MiniKit (#74106), RNA was quantified using a NanoDrop Equipment, and 600 nano gamms of RNA was converted to cDNA using a SuperScript VILO kit (Thermofisher #11755050) followed by qPCR amplification. BRCA1 and ATR gene expression was measured by RT-qPCR and normalised to GAPDH housekeeping gene expression. qPCR primer sets have been purchased from Thermo Fisher Scientific/Applied Biosystems: BRCA1, #Hs 01556193; ATR, #Hs 00992123; GAPDH, #Hs 03929097.

CDK2/CycE = biological target: T1, CDK2/CycE (Homo sapiens, UniProt P24941); experiment: CDK2/CycE kinase assay (TR-FRET, 2 mM ATP); assay type: biochemical; conditions: read-out: CDK2/CyclinE, 2 mM ATP (high ATP) IC50-[mol/l] (median)
T1 construct: purchased ProQinase GmbH (Freiburg, Germany); host or cells: insect cells (Sf9)
Excerpt: CDK2/CycE-inhibitory activity of compounds of the present invention was quantified employing the CDK2/CycE TR-FRET assay as described in the following paragraphs.
Recombinant fusion proteins of GST and human CDK2 and of GST and human CycE, expressed in insect cells (Sf9) and purified by Glutathion-Sepharose affinity chromatography, were purchase from ProQinase GmbH (Freiburg, Germany). As substrate for the kinase reaction biotinylated peptide biotin-Ttds-YISPLKSPYKISEG (C-terminus in amid form) was used which can be purchased e.g. form the company JERINI peptide technologies (Berlin, Germany).
For the assay 50 nanoL of a 100 fold concentrated solution of the test compound in DMSO was pipetted into a black low volume 384 well microtiter plate or a black 1536 well microtiter plate (both Greiner Bio-One, Frickenhausen, Germany), 2 microL of a solution of CDK2/CycE in aqueous assay buffer [50 millimol/L Tris/HCl pH 8.0, 10 millimol/L MgCl2, 1.0 millimol/L dithiothreitol, 0.1 millimol/L sodium ortho-vanadate, 0.01% (v/v) Nonidet-P40 (Sigma)] were added and the mixture was incubated for 15 min at 22° C. to allow pre-binding of the test compounds to the enzyme before the start of the kinase reaction. Then the kinase reaction was started by the addition of 3 microL of a solution of adenosine-tri-phosphate (ATP, 3.33 millimol/L=> final conc. in the 5 microL assay volume is 2 millimol/L) and substrate (1.25 micromol/L=> final conc. in the 5 microL assay volume is 0.75 micromol/L) in assay buffer and the resulting mixture was incubated for a reaction time of 25 min at 22° C. The concentration of CDK2/CycE was adjusted depending of the activity of the enzyme lot and was chosen appropriate to have the assay in the linear range, typical concentrations were in the range of 10 ng/ml. The reaction was stopped by the addition of 3 microL of a solution of TR-FRET detection reagents (0.333 micromol/L streptavidine-XL665 [Cisbio Bioassays, Codolet, France] and 1.67 nanomol/L anti-RB(pSer807/pSer8l 1)-antibody from BD Pharmingen [#558389] and 2 nanomol/L LANCE EU-W1024 labeled anti-mouse IgG antibody [Perkin-Elmer, product no. AD0077, as an alternative a Terbium-cryptate-labeled anti-mouse IgG antibody from Cisbio Bioassays can be used]) in an aqueous EDTA-solution (167 millimol/L EDTA, 0.2% (w/v) bovine serum albumin in 100 millimol/L HEPES pH 7.5).
The resulting mixture was incubated 1 h at 22° C. to allow the formation of complex between the phosphorylated biotinylated peptide and the detection reagents. Subsequently the amount of phosphorylated substrate was evaluated by measurement of the resonance energy transfer from the Eu-chelate to the streptavidine-XL. Therefore, the fluorescence emissions at 620 nm and 665 nm after excitation at 350 nm was measured in a TR-FRET reader, e.g. a Pherastar (BMG Labtechnologies, Offenburg, Germany) or a Viewlux (Perkin-Elmer). The ratio of the emissions at 665 nm and at […] was taken as the measure for the amount of phosphorylated substrate. The data were normalised (enzyme reaction without inhibitor=0% inhibition, all other assay components but no enzyme=100% inhibition).

| IC50 (CDK2/CycE) [nM] | SMILES | IC50 [1] [nM] |
| --- | --- | --- |
| > 20000 | C[C@@H]1CN(c2nc(NCc3nc4ccccc4[nH]3)c3ncc(Br)n3n2)C[C@H](C)O1 [Example 4, N-[(1H-benzimidazol-2-yl)methyl]-7-bromo-2-[rel-(2R,6S)-2,6-dimethylmorpholin-4-yl]imidazo[2,1-f][1,2,4]triazin-4-amine] | 25.9 |
| > 20000 | CN1CCN(c2nc(NCc3nc4ccccc4[nH]3)c3ncc(Br)n3n2)CC1 [Example 6, N-[(1H-benzimidazol-2-yl)methyl]-7-bromo-2-(4-methylpiperazin-1-yl)imidazo[2,1-f][1,2,4]triazin-4-amine] | 69 |
| > 20000 | Brc1cnc2c(NCc3nc4ccccc4[nH]3)nc(N3CCNCC3)nn12 [Example 8, N-[(1H-benzimidazol-2-yl)methyl]-7-bromo-2-(piperazin-1-yl)imidazo[2,1-f][1,2,4]triazin-4-amine] | 3.4 |
| > 20000 | C[C@@H]1CN(c2nc(NCc3nc4ccccc4[nH]3)c3ncc(Br)n3n2)C[C@H](C)N1 [Example 9, N-[(1H-benzimidazol-2-yl)methyl]-7-bromo-2-[rel-(3R,5S)-3,5-dimethylpiperazin-1-yl]imidazo[2,1-f][1,2,4]triazin-4-amine] | 3.52 |
| > 20000 | Fc1cccc2[nH]c(CNc3nc(N4CCOCC4)nn4c(Br)cnc34)nc12 [Example 12, 7-bromo-N-[(4-fluoro-1H-benzimidazol-2-yl)methyl]-2-(morpholin-4-yl)imidazo[2,1-f][1,2,4]triazin-4-amine] |  |
| 14200 | COc1cccc2[nH]c(CNc3nc(N4CCNCC4)nn4c(Br)cnc34)nc12 [Example 15, 7-bromo-N-[(4-methoxy-1H-benzimidazol-2-yl)methyl]-2-(piperazin-1-yl)imidazo[2,1-f][1,2,4]triazin-4-amine] | 2.36 |
| 1410 | OC[C@@H]1CCCCN1c1nc(NCc2nc3ccccc3[nH]2)c2ncc(Br)n2n1 [Example 17, [(2S)-1-(4-{[(1H-benzimidazol-2-yl)methyl]amino}-7-bromoimidazo[2,1-f][1,2,4]triazin-2-yl)piperidin-2-yl]methanol] | 15.7 |
| 17200 | Fc1ccc2[nH]c(CNc3nc(N4CCOCC4)nn4c(Br)cnc34)nc2c1 [Example 20, 7-bromo-N-[(5-fluoro-1H-benzimidazol-2-yl)methyl]-2-(morpholin-4-yl)imidazo[2,1-f][1,2,4]triazin-4-amine] | 3.54 |
| > 20000 | CN1CCN(c2nc(NCc3nc4cc(F)ccc4[nH]3)c3ncc(Br)n3n2)CC1 [Example 21, 7-bromo-N-[(5-fluoro-1H-benzimidazol-2-yl)methyl]-2-(4-methylpiperazin-1-yl)imidazo[2,1-f][1,2,4]triazin-4-amine] | 3.11 |
| > 20000 | CN1CCN(c2nc(NCc3nc4c(F)cccc4[nH]3)c3ncc(Br)n3n2)CC1 [Example 23, 7-bromo-N-[(4-fluoro-1H-benzimidazol-2-yl)methyl]-2-(4-methylpiperazin-1-yl)imidazo[2,1-f][1,2,4]triazin-4-amine] | 3.12 |

The next lines start with the compound.

| SMILES | IC50 (CDK2/CycE) [nM] | IC50 [1] [nM] |
| --- | --- | --- |
| Fc1cccc(-c2cnc3c(NCc4nc5ccccc5[nH]4)nc(N4CCOCC4)nn23)c1 [Example 3, N-[(1H-benzimidazol-2-yl)methyl]-7-(3-fluorophenyl)-2-(morpholin-4-yl)imidazo[2,1-f][1,2,4]triazin-4-amine] | > 20000 | > 100 |
| C[C@@H]1CN(c2nc(NCc3nc4c(F)c(F)ccc4[nH]3)c3ncc(Br)n3n2)C[C@H](C)O1 [Example 5, 7-bromo-N-[(4,5-difluoro-1H-benzimidazol-2-yl)methyl]-2-[rel-(2R,6S)-2,6-dimethylmorpholin-4-yl]imidazo[2,1-f][1,2,4]triazin-4-amine] | > 20000 | 6.39 |
| Fc1ccc2[nH]c(CNc3nc(N4CCOCC4)nn4c(Br)cnc34)nc2c1F [Example 7, 7-bromo-N-[(4,5-difluoro-1H-benzimidazol-2-yl)methyl]-2-(morpholin-4-yl)imidazo[2,1-f][1,2,4]triazin-4-amine] | > 20000 | 6.36 |
| Fc1ccc2[nH]c(CNc3nc(N4CCNCC4)nn4c(Br)cnc34)nc2c1F [Example 10, 7-bromo-N-[(4,5-difluoro-1H-benzimidazol-2-yl)methyl]-2-(piperazin-1-yl)imidazo[2,1-f][1,2,4]triazin-4-amine] | > 20000 | 0.548 |
| C[C@@H]1CN(c2nc(NCc3nc4c(F)c(F)ccc4[nH]3)c3ncc(Br)n3n2)C[C@H](C)N1 [Example 11, 7-bromo-N-[(4,5-difluoro-1H-benzimidazol-2-yl)methyl]-2-[rel-(3R,5S)-3,5-dimethylpiperazin-1-yl]imidazo[2,1-f][1,2,4]triazin-4-amine] | > 20000 | 0.396 |
| COc1cccc2[nH]c(CNc3nc(N4CCOCC4)nn4c(Br)cnc34)nc12 [Example 13, 7-bromo-N-[(4-methoxy-1H-benzimidazol-2-yl)methyl]-2-(morpholin-4-yl)imidazo[2,1-f][1,2,4]triazin-4-amine] | 5740 | 8.06 |
| COc1cccc2[nH]c(CNc3nc(N4C[C@@H](C)N[C@@H](C)C4)nn4c(Br)cnc34)nc12 [Example 14, 7-bromo-2-[rel-(3R,5S)-3,5-dimethylpiperazin-1-yl]-N-[(4-methoxy-1H-benzimidazol-2-yl)methyl]imidazo[2,1-f][1,2,4]triazin-4-amine] | > 20000 | 1.47 |
| COc1cccc2[nH]c(CNc3nc(N4CCN(C)CC4)nn4c(Br)cnc34)nc12.O=CO [Example 16, 7-bromo-N-[(4-methoxy-1H-benzimidazol-2-yl)methyl]-2-(4-methylpiperazin-1-yl)imidazo[2,1-f][1,2,4]triazin-4-amine Formate (1/1)] | 12600 | 5.59 |
| C[C@@H]1CN(c2nc(NCc3nc4c(F)cccc4[nH]3)c3ncc(Br)n3n2)C[C@H](C)N1 [Example 18, 7-bromo-2-[rel-(3R,5S)-3,5-dimethylpiperazin-1-yl]-N-[(4-fluoro-1H-benzimidazol-2-yl)methyl]imidazo[2,1-f][1,2,4]triazin-4-amine] | > 20000 | 1.98 |
| C[C@@H]1CN(c2nc(NCc3nc4cc(F)ccc4[nH]3)c3ncc(Br)n3n2)C[C@H](C)N1 [Example 19, 7-bromo-2-[rel-(3R,5S)-3,5-dimethylpiperazin-1-yl]-N-[(5-fluoro-1H-benzimidazol-2-yl)methyl]imidazo[2,1-f][1,2,4]triazin-4-amine] | > 20000 | 0.886 |
| Fc1cccc2[nH]c(CNc3nc(N4CCNCC4)nn4c(Br)cnc34)nc12 [Example 22, 7-bromo-N-[(4-fluoro-1H-benzimidazol-2-yl)methyl]-2-(piperazin-1-yl)imidazo[2,1-f][1,2,4]triazin-4-amine] |  | 0.884 |
| C[C@@H]1CN(c2nc(NCc3nc4ccccc4[nH]3)c3ncc(C(F)(F)F)n3n2)C[C@H](C)N1.O=CO [Example 24, N-[(1H-benzimidazol-2-yl)methyl]-2-[rel-(3R,5S)-3,5-dimethylpiperazin-1-yl]-7-(trifluoromethyl)imidazo[2,1-f][1,2,4]triazin-4-amine Formate (1/1)] | > 20000 | 1.1 |
